Experimental data from PMC5619856, “One enzyme, many reactions: structural basis for the various reactions catalyzed by naphthalene 1,2-dioxygenase” (IUCrJ, 2017).

Molecular target: T1, naphthalene 1,2-dioxygenase (NDO) (Pseudomonas putida, UniProt P0A110)
T1 construct: gene ndoB; wild-type terminal oxygenase component, plasmid pDTG121 in E. coli DE3 Star, no tag mentioned; alpha3beta3 hexamer with Rieske [2Fe-2S] and mononuclear iron; with Naphthalene 1,2-dioxygenase system, small oxygenase component
T1 sequence (P0A110 1-449): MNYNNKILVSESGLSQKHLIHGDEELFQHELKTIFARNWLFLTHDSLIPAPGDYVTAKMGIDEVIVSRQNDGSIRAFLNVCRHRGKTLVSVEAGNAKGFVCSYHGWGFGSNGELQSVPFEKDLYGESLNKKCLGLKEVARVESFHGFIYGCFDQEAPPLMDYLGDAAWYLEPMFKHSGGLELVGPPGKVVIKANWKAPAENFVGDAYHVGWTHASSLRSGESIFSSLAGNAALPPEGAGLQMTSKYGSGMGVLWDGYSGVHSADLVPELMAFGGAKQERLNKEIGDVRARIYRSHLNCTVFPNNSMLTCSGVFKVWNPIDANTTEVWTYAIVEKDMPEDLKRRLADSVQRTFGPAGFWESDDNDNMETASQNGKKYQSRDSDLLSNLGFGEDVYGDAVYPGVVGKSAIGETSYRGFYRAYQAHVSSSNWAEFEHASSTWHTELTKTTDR
T1 sequence (P0A112 1-194 partner): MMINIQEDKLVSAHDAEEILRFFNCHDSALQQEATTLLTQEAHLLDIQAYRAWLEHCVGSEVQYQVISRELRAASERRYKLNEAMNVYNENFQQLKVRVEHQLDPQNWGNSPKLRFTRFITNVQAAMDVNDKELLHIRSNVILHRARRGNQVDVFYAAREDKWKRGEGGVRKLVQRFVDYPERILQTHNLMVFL
Assay: X-ray crystal structure (soaked crystal)
Type: binding
Details: active site, multiple orientations; crystals pH 5.0-5.8; soaked at least two weeks

Row | SMILES | X-ray crystal structure (soaked crystal)
1 | CCSc1ccccc1 [ethylphenylsulfide] | structures of phenetole, thioanisole and ethylphenylsulfide in complex with NDO were solved
2 | CCOc1ccccc1 [phenetole] | structures of phenetole, thioanisole and ethylphenylsulfide in complex with NDO were solved
3 | CSc1ccccc1 [thioanisole] | structures of phenetole, thioanisole and ethylphenylsulfide in complex with NDO were solved
